Measurements taken from EP0516725B1, “NEW USE OF LINOMIDE (R)” (Pharmacia AB (reg.number 556131-9608), priority 1990, dated 1991).

Columns and labels:
[1] = Half life in cynomolgus monkeys; assay type: in vivo
[2] = system: SIVsm; assay: SIVsm infection of cynomolgus monkeys (body weight, CD4 cells, virus isolation, clinical state); conditions: result in words
Text: Nine cynomolgus monkeys (Macaca Fascicularis) were used in this study. The mean body mass was 2600 g and the range was 2260 to 2930 g. The monkeys were housed in single cages in a biosafety level three facility. […] The absence of pre-existing retrovirus was further investigated by cocultivating monkey PBMC (=peripheral blood mononuclear cells) with human PHA-stimulated PBMC and testing of culture supernatants for reverse transcriptase activity.
Intraperitoneal treatment with Linomide® or NaCl started four days before challenge with live virus and subsequently every day (not during weekends) subcutaneosly during the time of follow-up. The follow-up is 75 days after live virus challenge. Monkeys L1-3 were treated with a low dose Linomide® 0.3 mg/kg bw x 2 Monkeys L4-6 were treated with a high dose Linomide® 3 mg/kg bw x 2 Monkeys L7-9 were given sodium chloride x 2 All monkeys were challenged with 10-100 animal ID₅₀ of live SIVsm. Animals were sacrificed when they became moribund.
T-lymphocyte subsets in peripheral blood were determined by immunofluorescence as previously described [Putkonen, P., Warstedt, K., Thorstensson, R., Benthin, R., Albert, J., Lundgren, B., Öberg, B., Norrby, E., Biberfeld, G.: Experimental infection of cynomolgus monkeys (Macaca Fascicularis with simian immunodeficiency virus (SIVsm), J. AIDS 1989:2, 359-365]. Peripheral blood samples were incubated with FITC-conjugated anti-CD4 (OKT4, Ortho) and anti-CD8 (Leu2, Becton Dickinson). The samples were analyzed in a Spectrum III flow cytometer (Ortho Diagnostics).

[3] = Half life in mice; assay type: in vivo
[4] = Half life in humans; conditions: human, in vivo
[5] = Half life in rats; conditions: rat, in vivo
[6] = system: spleen T lymphocyte subpopulations; assay: Spleen T lymphocyte subpopulations by direct immunofluorescence after treatment of mice; assay type: in vivo, C57B1/6 mice; conditions: 160 mg/kg/day in the drinking water for 4 days
Protocol: C57B1/6 mice were given Linomide® (160 mg/kg/day) in the drinking water for 4 days. Control animals were given ordinary drinking water. […] 134:3956, 1985] and examined for the expression of cell surface markers by direct immunofluorescence. The following FITC-labeled monoclonal antibodies were used: HO-134 (Thy 1.2), GK 1.5 (CD4) and 19. 178c (CD8) [for reference to antibodies see Kalland, T.: Regulation of NK progenitors: Studies with a novel immunmodulator with distinct effects at the precursor level, J. Immunol. 144:4472-6, 1990]. The number of positive cells was determined by counting 400 cells in an epifluoroscence equipped Leitz microscope. Values represent mean ± SD of three mice.

[7] = system: YAC-1 cells; assay: Spleen NK activity, conventional 51Cr-release assay after treatment of mice; conditions: 160 mg/kg/day in the drinking water for four days; for % CYTOTOXICITY: 3 mice
[8] = spleen cells, mean ± SD of three mice

Structure (SMILES): CN(C(=O)c1c(O)c2ccccc2n(C)c1=O)c1ccccc1 [Linomide®, N-phenyl-N-methyl-1,2-dihydro-4-hydroxy-1-methyl-2-oxo-quinoline-3-carboxamide]
- half life [1]: six
- qualitative virus isolation assay ([2]; all monkeys (low dose, high dose and control), 14 days after challenge): virus could be isolated from all monkeys
- body weight ([2]; high dose group (3 mg/kg bw x 2), one monkey): dramatic reduction in body weight
- percentage of CD4⁺ cells in peripheral blood ([2]; low dose (0.3 mg/kg bw x 2)): essentially unaltered
- body weight ([2]; monkeys L1-3, 0.6 mg/kg/day): Only a slight weight reduction
- clinical condition ([2]; monkeys L1-3 = low dose (0.3 mg/kg bw x 2)): remained clinically healthy
- half life [3]: two
- half-life [4]: ~48 h
- half-life [5]: 24 h
- % Fluorescent cells CD4 [6, 8]: 28±2%
- % Fluorescent cells CD8 [6, 8]: 10±3%
- % Fluorescent cells Thy 1.2 [6, 8]: 42±5%
- distribution of T lymphocyte subpopulations ([6]; result in words): do not significantly altler the distribution of T lymphocyte subpopulations
- % CYTOTOXICITY ([7]; Effector cell: Target cell ratio 25:1): 14±4%
- % CYTOTOXICITY ([7]; Effector cell: Target cell ratio 50:1): 20±4%
- % CYTOTOXICITY ([7]; Effector cell: Target cell ratio 100:1): 29±5%
- NK activity ([7]; result in words): significantly enhances NK activity
